Results: patent US5516797A, “Immunosuppressive compounds” (Vertex Pharmaceuticals, Incorporated, priority 1994, dated 1996)

Tests used:
[1] = molecular target: T1, FK-506 binding protein (FKBP) (Homo sapiens, UniProt P62942); assay: Inhibition of PPIase (rotamase) enzyme activity of FKBP (apparent Ki); format: biochemical; conditions: substrate N-succinylAla-Ala-Pro-Phe-p-nitroanilide, chymotrypsin-coupled
How it was run: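 Apparent Ki was estimated by analysing first-order rate constants versus inhibitor concentration. Substrate N-succinyl-Ala-Ala-Pro-Phe-p-nitroanilide isomerization was read spectrophotometrically, with chymotrypsin cleaving 4-nitroanilide from the trans form only.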

[2] = test system: PBLs stimulated with JVM human viral transformed B lymphoblastoid cells; assay: MLR bioassay JVM: inhibition of proliferation in mixed lymphocyte reaction; format: cell-based; conditions: Lymphoblastoid cell, pulsed on day 6, harvested 24 h later
Procedure: (§1) LB and JVMhuman viraltransformed B lymphoblastoid cell lines stimulated t
(§2) proliferate in a mixed lymphocyte reaction (MLR). The compounds are
(§3) evaluated on their ability to inhibit this proliferation.
(§4) Fresh peripheral blood lymphocytes (PBLs) from LeukoPak cells or whole blood from random normal blood donors (tested HIV-negative and hepatitis negative) are isolated and separated by density centrifugation over Histopaque 1077 (Sigma Chemical Co., St. Louis, Mo.). The murine CTLL cytotoxic T cell line and the human Jurkat T cell line are from ATCC (CTLL-2 ATCC TIB214, JURKAT CLONE E6-1 ATCC TIBl52). The human allogeneic B cell lines used for activation of the fresh PBLs are EBV-transformed lymphocytes from normal healthy adult donors with two completely different HLAhaplotypes. All cell lines were routinely tested for the presence of Mycolasma contamination using the GibcoMycotect test kit and are Mycolasma-free. Culture medium consksts of RPMI 1640 (Gibco, Grand Island, N.Y.) containing penicillin (50 U/ml) and streptomycin (50 μg/ml), L-glutamine 2 mM, 2 mercaptoethanol (5×10^-5), 10% heat-inactivated FCS and 10 mM HEPES.
(§5) All chemical stocks were dissolved in DMSO.
(§6) MLR Bioassays ("LB" and "JVM")
(§7) Antigen activated proliferation of PBLs in a primary mixed lymphocyte reaction was assessed in the presence or absence of different concentrations of tested compounds and control drugs. 5×10^4 fresh PBLs were stimulated with 5×10^3 of Mitomycin C treated-allogeneic EBV-transformed β-lymphoglastoid cells, IB and JVM, in a final volume of 200 μl per well in 96-well round-bottomed plates (Mishell, B. B. and S. M. Shiigi, Selected Methods in Cellular Immunology W. H. Freeman and Co., San Francisco, Calif. (1980); Nelson, P. A. et al., Transplantation 50:286 (1990)). Cultures were pulsed on day 6, harvested 24 h later and counted as in previous section.

[3] = molecular target: T1, FK-506 binding protein (FKBP); assay: Competitive binding to FKBP against [3H]dihydro-FK-506 (apparent Kd); conditions: competition with [3H]dihydro-FK-506
[4] = test system: human peripheral blood lymphocytes; assay: Mitogenesis assay OKT3: inhibition of proliferation of human PBLs; format: cell-based; conditions: Lymphocyte, OKT3 (10^-4 dilution final), 48 h incubation
Procedure: (§8) PMA and OKT3mitogens used to stimulate proliferation of human peripheral
(§9) blood lymphocytes (PBC). Compounds are evaluated on their ability to
as §4, §5
(§10) Mitogenesis Assays ("PMA" and "OKT3")
(§11) After 48 h incubation (37° C., 5% CO2), cells were pulsed with 1 μCi of ^3 H-thymidine, harvested 24 h later with a Tom Tek cell harvester, and counted in LKB β-scintillation counter.

[5] = test system: PBLs stimulated with LB human viral transformed B lymphoblastoid cells; assay: MLR bioassay LB: inhibition of proliferation in mixed lymphocyte reaction; format: cell-based; conditions: Lymphoblastoid cell, pulsed on day 6, harvested 24 h later
Procedure: as §1, §2, §3, §4, §5, §6, §7

[6] = test system: human peripheral blood lymphocytes; assay: Mitogenesis assay PMA: inhibition of proliferation of human PBLs; format: cell-based; conditions: Lymphocyte, PMA (10 ng/ml) plus ionomycin (250 ng/ml), 48 h incubation
Procedure: as §8, §9, §4, §5, §10, §11

T1 sequence (P62942 whole entry): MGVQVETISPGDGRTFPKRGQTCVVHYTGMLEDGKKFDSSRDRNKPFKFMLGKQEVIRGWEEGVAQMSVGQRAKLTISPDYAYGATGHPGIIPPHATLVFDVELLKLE

| SMILES | Ki [1] | Kd [3] | IC50 [2] | IC50 [4] | IC50 [5] | IC50 [6] |
| --- | --- | --- | --- | --- | --- | --- |
| O=C(C(=O)N1CCCC[C@H]1C(=O)OCc1ccccc1)c1ccc([N+](=O)[O-])cc1 [Compound 16] | 160 µM | 100 µM | > 10 µM | > 10 µM | > 10 µM | > 10 µM |
| C[C@H](OC(=O)[C@@H]1CCCCN1C(=O)C(=O)c1ccccc1)c1ccccc1 [Compound 49] | 0.5 µM | 0.6 µM | > 10 µM | 6.2 µM | > 10 µM | > 10 µM |
| O=C(OCc1ccccc1)[C@@H]1CCCCN1C(=O)C(=O)C1(O)CCCCC1 [Compound 46] | 1 µM | 2 µM | > 10 µM | > 10 µM | > 10 µM | > 10 µM |
| COc1ccc(C=CCCOC(=O)[C@@H]2CCCCN2C(=O)C(=O)c2cc(OC)c(OC)c(OC)c2)cc1 [Compound 90] | 0.011 µM | 0.6 µM | > 10 µM | > 10 µM | > 10 µM | 8 µM |
| O=C(C(=O)N1CCCC[C@H]1C(=O)OCc1ccccc1)c1ccccc1 [Compound 3, (S)-Benzyl N-(phenylglyoxyl)pipecolate] | – | > 2 µM | > 10 µM | 4.6 µM | > 10 µM | 7.6 µM |
| O=C(C(=O)N1CCCC[C@H]1C(=O)OCc1ccccc1)c1cccc2ccccc12 [Compound 48] | 1 µM | 2 µM | > 10 µM | > 10 µM | > 10 µM | > 10 µM |
| O=C(C(=O)N1CCCC[C@H]1C(=O)OCc1ccccc1)C1CCCCC1 [Compound 40] | 1.3 µM | 3 µM | > 10 µM | 1 µM | > 10 µM | 7 µM |
| O=C(C(=O)N1CCCC[C@H]1C(=O)OCCCCc1ccccc1)c1cccc(I)c1 [Compound 82] | 0.13 µM | 0.2 µM | > 10 µM | > 10 µM | > 10 µM | 10 µM |
| COc1cc(C(=O)C(=O)N2CCCC[C@H]2C(=O)OCc2ccccc2)cc(OC)c1OC [Compound 13] | 0.1 µM | 2 µM | > 10 µM | 5.9 µM | > 10 µM | > 10 µM |
| O=C(C(=O)N1CCCC[C@H]1C(=O)OCCCCc1ccccc1)c1ccc(I)cc1 [Compound 81] | 0.8 µM | 0.25 µM | > 10 µM | > 10 µM | > 10 µM | 7 µM |
| COc1cc(C(=O)C(=O)N2CCCC[C@H]2C(=O)OCCCCCCC2CCCCC2)cc(OC)c1OC [Compound 72] | 0.05 µM | 0.5 µM | > 10 µM | > 10 µM | > 10 µM | 9 µM |
| O=C(C(=O)N1CCCC[C@H]1C(=O)OCc1ccccc1)c1ccc2ccccc2c1 [Compound 47] | 1.5 µM | 0.3 µM | > 10 µM | > 10 µM | > 10 µM | > 10 µM |
| COc1cccc(C(=O)C(=O)N2CCCC[C@H]2C(=O)OCc2ccccc2)c1 [Compound 9] | 0.3 µM | > 1.3 µM | > 10 µM | 6.5 µM | > 10 µM | > 10 µM |
| O=C(C(=O)N1CCCC[C@H]1C(=O)OCc1ccccc1)c1cccc(C(F)(F)F)c1 [Compound 52] | 1.5 µM | 1.3 µM | > 10 µM | > 10 µM | > 10 µM | > 10 µM |
| O=C(C(=O)N1CCCC[C@H]1C(=O)OCc1ccccc1)c1cccs1 [Compound 22] | 0.8 µM | 4 µM | > 10 µM | > 10 µM | > 10 µM | > 10 µM |

More lines, in order of falling Kd [3], values ahead:

| Ki [1] | Kd [3] | SMILES | IC50 [2] | IC50 [4] | IC50 [5] | IC50 [6] |
| --- | --- | --- | --- | --- | --- | --- |
| 0.5 µM | 0.2 µM | O=C(C(=O)N1CCCC[C@H]1C(=O)OCc1ccccc1)c1cccc(OCc2ccccc2)c1 [Compound 53] | > 10 µM | 8 µM | > 10 µM | > 10 µM |
| 0.08 µM | 0.18 µM | O=C(C(=O)N1CCCC[C@H]1C(=O)OCCCCc1ccccc1)C1CCCCC1 [Compound 98] | > 10 µM | > 10 µM | > 10 µM | > 10 µM |
| 0.09 µM | 0.15 µM | O=C(C(=O)N1CCCC[C@H]1C(=O)OCc1cccc(Oc2ccccc2)c1)c1ccccc1 [Compound 62] | > 10 µM | > 10 µM | > 10 µM | 6.5 µM |
| – | 0.1 µM | COc1cc(C(=O)C(=O)N2CCCC[C@H]2C(=O)OCCCCc2ccccc2)cc(OC)c1OC [Compound 63] | 8.5 µM | 3.1 µM | 10 µM | 6 µM |
| 0.09 µM | 0.08 µM | COc1cc(C(=O)C(=O)N2CCCC[C@H]2C(=O)OCCCCCC2CCCCC2)cc(OC)c1OC [Compound 74] | 10 µM | 9 µM | 10 µM | 8 µM |
| 0.011 µM | 0.07 µM | C=CCOC(=O)Nc1ccc(CCCOC(=O)[C@@H]2CCCCN2C(=O)C(=O)c2cc(OC)c(OC)c(OC)c2)cc1 [Compound 88] | 4.5 µM | 2.2 µM | 2.5 µM | 2.2 µM |
| 0.016 µM | 0.06 µM | COc1cc(C(=O)C(=O)N2CCCC[C@H]2C(=O)OCCCCc2ccc(I)cc2)cc(OC)c1OC [Compound 77] | 7 µM | 8 µM | 6 µM | 4.5 µM |
| 0.015 µM | 0.06 µM | COc1cc(C(=O)C(=O)N2CCCC[C@H]2C(=O)OCCCc2cn(C=O)c3ccccc23)cc(OC)c1OC [Compound 93] | 8.7 µM | 7 µM | 10 µM | 6 µM |
| 0.016 µM | 0.05 µM | COc1cc(C(=O)C(=O)N2CCCC[C@H]2C(=O)OCCCCc2c[nH]c3ccccc23)cc(OC)c1OC [Compound 94] | 7 µM | 5.5 µM | > 10 µM | 5 µM |
| 0.1 µM | 0.05 µM | COc1cc(C(=O)C(=O)N2CCCC[C@H]2C(=O)OCCCCCCc2ccccc2)cc(OC)c1OC [Compound 71] | 8 µM | 5.5 µM | 7.5 µM | 5 µM |
| – | 0.049 µM | COc1ccc(CCCCOC(=O)[C@@H]2CCCCN2C(=O)C(=O)c2cc(OC)c(OC)c(OC)c2)cc1 [Compound 85] | 10 µM | 4.5 µM | 7 µM | 4.5 µM |
| 0.04 µM | 0.033 µM | O=C(C(=O)N1CCCC[C@H]1C(=O)OCCCCc1ccccc1)c1cccc(-c2ccccc2)c1 [Compound 96] | > 10 µM | > 10 µM | > 10 µM | > 10 µM |
